Several values for one entry are separate records, joined by “and”; a condition that tells them apart may be missing. Identical values can stand only once. Inconclusive results and toxic doses are left out.
Tested on: P388 leukemia ip, CD2F1 mice, survival T/C
Test: NCI In Vivo Anticancer Drug Screen. Data for tumor model P388 Leukemia (intraperitoneal) in CD2F1 (CDF1) mice
Settings: endpoint: median survival time, higher = longer survival
Method in brief: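 Mice carrying the transplanted tumor received test compound or vehicle. Survival was recorded in each group, and the value is the treated-group measurement divided by that of the vehicle-treated control group.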

[1] = dose: 60.0 mg/kg/injection, schedule: Q01DX005 (ip), vehicle: Klucel (hydroxypropylcellulose) (HPC)
[2] = dose: 120.0 mg/kg/injection, schedule: Q01DX005 (ip), vehicle: Klucel (hydroxypropylcellulose) (HPC)
[3] = dose: 50.0 mg/kg/injection, schedule: Q01DX005 (ip), vehicle: saline
[4] = dose: 100.0 mg/kg/injection, schedule: Q01DX005 (ip), vehicle: saline
[5] = dose: 200.0 mg/kg/injection, schedule: Q01DX005 (ip), vehicle: saline
[6] = dose: 50.0 mg/kg/injection, schedule: Q01DX005 (ip), vehicle: saline with Tween-80
[7] = dose: 200.0 mg/kg/injection, schedule: Q01DX005 (ip), vehicle: saline with Tween-80
[8] = dose: 60.0 mg/kg/injection, schedule: Q01DX005 (ip), vehicle: saline with Tween-80
[9] = dose: 120.0 mg/kg/injection, schedule: Q01DX005 (ip), vehicle: saline with Tween-80
[10] = dose: 240.0 mg/kg/injection, schedule: Q01DX005 (ip), vehicle: saline with Tween-80
[11] = dose: 25.0 mg/kg/injection, schedule: Q01DX005 (ip), vehicle: saline with Tween-80
[12] = dose: 100.0 mg/kg/injection, schedule: Q01DX005 (ip), vehicle: saline with Tween-80

CCN(CC)CCNC(=O)c1cc(Cl)c(C(=O)NO)cc1OC
T/C (dose: 6.25 mg/kg/injection, schedule: Q01DX005 (ip), vehicle: Klucel (hydroxypropylcellulose) (HPC)): 87 % of control
T/C (dose: 12.5 mg/kg/injection, schedule: Q01DX005 (ip), vehicle: Klucel (hydroxypropylcellulose) (HPC)): 95 % of control
T/C (dose: 25.0 mg/kg/injection, schedule: Q01DX005 (ip), vehicle: Klucel (hydroxypropylcellulose) (HPC)): 104 % of control

Cc1c(OCC(=O)N/N=C/c2ccc(N(CCCl)CCCl)cc2)ccc2c(=O)c3ccccc3oc12
T/C [1]: 96 % of control
T/C [2]: 98 % of control

CC(=O)N([Si](C)(C)C)[Si](C)(C)C
T/C (dose: 6.25 mg/kg/injection, schedule: Q01DX009 (ip), vehicle: saline): 88 % of control and 96 % of control
T/C (dose: 12.5 mg/kg/injection, schedule: Q01DX009 (ip), vehicle: saline): 100 % of control and 109 % of control and 86 % of control
T/C (dose: 25.0 mg/kg/injection, schedule: Q01DX009 (ip), vehicle: saline): 101 % of control and 86 % of control and 93 % of control
T/C (dose: 200.0 mg/kg/injection, schedule: Q01DX009 (ip), vehicle: saline): 100 % of control

CS(=O)CCC(N)P(=O)(O)O (stereo not drawn)
T/C [3]: 92 % of control
T/C [4]: 99 % of control
T/C [5]: 99 % of control

CNC(=O)O/N=C(\SC)C(=O)N(C)C
T/C (dose: 0.87 mg/kg/injection, schedule: Q01DX005 (ip), vehicle: saline): 102 % of control
T/C (dose: 1.75 mg/kg/injection, schedule: Q01DX005 (ip), vehicle: saline): 100 % of control

O=C1CSc2ccccc2-n2cccc21
T/C [1]: 89 % of control
T/C [2]: 109 % of control
T/C (dose: 240.0 mg/kg/injection, schedule: Q01DX005 (ip), vehicle: Klucel (hydroxypropylcellulose) (HPC)): 101 % of control

Cc1cccc(/C(=C\c2ccc([N+](=O)[O-])cc2)C(=O)Nc2ccc(S(=O)(=O)F)c(C)c2)c1
T/C [1]: 88 % of control
T/C [2]: 86 % of control

CCOC(=O)Nc1ccc(C2OCCS2)cc1 (stereo not drawn)
T/C [6]: 86 % of control
T/C [7]: 90 % of control

C=C1C(=O)OC2C=CCC12 (stereo not drawn)
T/C (dose: 3.13 mg/kg/injection, schedule: Q01DX009 (ip), vehicle: distilled water + Tween-80): 99 % of control
T/C (dose: 6.25 mg/kg/injection, schedule: Q01DX009 (ip), vehicle: distilled water + Tween-80): 99 % of control
T/C (dose: 12.5 mg/kg/injection, schedule: Q01DX009 (ip), vehicle: distilled water + Tween-80): 100 % of control
T/C (dose: 25.0 mg/kg/injection, schedule: Q01DX009 (ip), vehicle: distilled water + Tween-80): 107 % of control
T/C (dose: 50.0 mg/kg/injection, schedule: Q01DX009 (ip), vehicle: distilled water + Tween-80): 107 % of control

S=C(S)N1CCCCCC1
T/C (dose: 60.0 mg/kg/injection, schedule: Q01DX005 (ip), vehicle: suspension in saline): 97 % of control
T/C (dose: 120.0 mg/kg/injection, schedule: Q01DX005 (ip), vehicle: suspension in saline): 95 % of control

CCOC(=O)/C=C/C(=O)NNC(=O)OC(C)(C)C
T/C (dose: 12.5 mg/kg/injection, schedule: Q01DX009 (ip), vehicle: other): 99 % of control
T/C (dose: 25.0 mg/kg/injection, schedule: Q01DX009 (ip), vehicle: other): 93 % of control
T/C (dose: 50.0 mg/kg/injection, schedule: Q01DX009 (ip), vehicle: other): 101 % of control
T/C (dose: 100.0 mg/kg/injection, schedule: Q01DX009 (ip), vehicle: other): 119 % of control
T/C (dose: 200.0 mg/kg/injection, schedule: Q01DX009 (ip), vehicle: other): 108 % of control

CCCCCCC(=O)CC(SCCO)c1ccc(Cl)c(Cl)c1 (stereo not drawn)
T/C (dose: 100.0 mg/kg/injection, schedule: Q04DX003 (ip), vehicle: suspension in saline): 99 % of control
T/C (dose: 200.0 mg/kg/injection, schedule: Q04DX003 (ip), vehicle: suspension in saline): 104 % of control
T/C (dose: 400.0 mg/kg/injection, schedule: Q04DX003 (ip), vehicle: suspension in saline): 104 % of control

CCc1c(NCCCl)c(C(=O)NCCCl)c2nc3ccccc3n2c1NCCCl
T/C (dose: 3.75 mg/kg/injection, schedule: Q01DX005 (ip), vehicle: saline with Tween-80): 100 % of control
T/C (dose: 7.5 mg/kg/injection, schedule: Q01DX005 (ip), vehicle: saline with Tween-80): 106 % of control
T/C (dose: 15.0 mg/kg/injection, schedule: Q01DX005 (ip), vehicle: saline with Tween-80): 108 % of control

CCOC(=O)C1(c2ccccc2)c2c(cnc3ccccc23)C(=O)N1C (stereo not drawn)
T/C [8]: 101 % of control
T/C [9]: 97 % of control
T/C [10]: 97 % of control

CP1(=S)CCC2=C1CCc1cc(O)ccc12 (stereo not drawn)
T/C (dose: 50.0 mg/kg/injection, schedule: Q01DX009 (ip), vehicle: Klucel (hydroxypropylcellulose) (HPC)): 104 % of control
T/C (dose: 100.0 mg/kg/injection, schedule: Q01DX009 (ip), vehicle: Klucel (hydroxypropylcellulose) (HPC)): 104 % of control
T/C (dose: 200.0 mg/kg/injection, schedule: Q01DX009 (ip), vehicle: Klucel (hydroxypropylcellulose) (HPC)): 101 % of control

CCCCN(CCCC)CCCNc1nccc2ccccc12
T/C (dose: 6.25 mg/kg/injection, schedule: Q01DX005 (ip), vehicle: saline with Tween-80): 106 % of control
T/C (dose: 12.5 mg/kg/injection, schedule: Q01DX005 (ip), vehicle: saline with Tween-80): 103 % of control
T/C [11]: 106 % of control

Cc1cncn2ncnc12
T/C (dose: 100.0 mg/kg/injection, schedule: Q04DX003 (ip), vehicle: saline): 100 % of control
T/C (dose: 200.0 mg/kg/injection, schedule: Q04DX003 (ip), vehicle: saline): 95 % of control
T/C (dose: 400.0 mg/kg/injection, schedule: Q04DX003 (ip), vehicle: saline): 95 % of control

C=C1N=NN(c2cccc(C(F)(F)F)c2)C1N1CCOCC1 (stereo not drawn)
T/C [8]: 99 % of control
T/C [9]: 100 % of control

CC1OC(OC2CCCc3c(O)c4c(c(O)c32)C(=O)c2ccccc2C4=O)CC(N)C1O (stereo not drawn)
T/C (dose: 1.25 mg/kg/injection, schedule: Q04DX002 (ip), vehicle: water): 104 % of control and 106 % of control
T/C (dose: 2.5 mg/kg/injection, schedule: Q04DX002 (ip), vehicle: water): 98 % of control and 111 % of control
T/C (dose: 5.0 mg/kg/injection, schedule: Q04DX002 (ip), vehicle: water): 98 % of control and 106 % of control
T/C (dose: 10.0 mg/kg/injection, schedule: Q04DX002 (ip), vehicle: water): 98 % of control and 106 % of control

FC(F)(F)c1ccc(-c2nn[nH]n2)cc1
T/C [1]: 107 % of control
T/C [2]: 101 % of control

O=c1oc2ccc(Cl)cc2c(=O)n1-c1cc(Cl)ccc1[N+](=O)[O-]
T/C [3]: 100 % of control
T/C [4]: 99 % of control
T/C [5]: 104 % of control

S=c1[nH]ncn2nc3ccccc3c12
T/C [6]: 100 % of control
T/C [12]: 97 % of control
T/C [7]: 97 % of control

O=C(NC(Cc1ccc(O)cc1)C(=O)O)C(=O)c1c[nH]c2ccc([N+](=O)[O-])cc12 (stereo not drawn)
T/C [8]: 97 % of control
T/C [9]: 97 % of control
T/C [10]: 89 % of control

CC(=O)NC(CCC(C)(C)SCc1ccccc1)C(=O)O (stereo not drawn)
T/C (dose: 50.0 mg/kg/injection, schedule: Q01DX009 (ip), vehicle: saline with Tween-80): 91 % of control
T/C (dose: 100.0 mg/kg/injection, schedule: Q01DX009 (ip), vehicle: saline with Tween-80): 94 % of control
T/C (dose: 200.0 mg/kg/injection, schedule: Q01DX009 (ip), vehicle: saline with Tween-80): 103 % of control

CCCCCCCC#CC1(C(O)CC)Sc2ccccc2N1C (stereo not drawn)
T/C [8]: 107 % of control
T/C [9]: 101 % of control
T/C [10]: 105 % of control

N#CNC(=O)c1ccc(C(=O)NC#N)cc1
T/C [6]: 98 % of control
T/C [12]: 98 % of control
T/C [7]: 90 % of control

Cc1cc2c(cc1C)C(=O)C(CN1CCCCC1)CO2 (stereo not drawn)
T/C (dose: 100.0 mg/kg/injection, schedule: Q01DX001 (ip), vehicle: saline): 107 % of control
T/C (dose: 200.0 mg/kg/injection, schedule: Q01DX001 (ip), vehicle: saline): 104 % of control

Cc1ccc(C)c(C(=O)/C=C/C(=O)O)c1
T/C [11]: 114 % of control
T/C [6]: 115 % of control and 117 % of control

CC1=CC(=O)C(O)C2(C)C1CC1OC(=O)C(O)C3(O)C4(C)OCC13C2C(O)C4O (stereo not drawn)
T/C (dose: 0.19 mg/kg/injection, schedule: Q01DX009 (ip), vehicle: saline + alcohol): 102 % of control
T/C (dose: 0.38 mg/kg/injection, schedule: Q01DX009 (ip), vehicle: saline + alcohol): 105 % of control
T/C (dose: 0.75 mg/kg/injection, schedule: Q01DX009 (ip), vehicle: saline + alcohol): 119 % of control
T/C (dose: 1.5 mg/kg/injection, schedule: Q01DX009 (ip), vehicle: saline + alcohol): 105 % of control and 112 % of control

CN1CCN(CCCNN)CC1
T/C [3]: 93 % of control
T/C [4]: 101 % of control
T/C [5]: 101 % of control
